In ChEMBL document CHEMBL5126585, “Synthesis and evaluation of 1,2,3-dithiazole inhibitors of the nucleocapsid protein of feline immunodeficiency virus (FIV) as a model for HIV infection” (Bioorg Med Chem, 2022) one finds CC50, EC50 and selectivity ratio data, which are given here for 33 molecules.

A short description of data set [1]: Cytotoxicity against CRFK cells assessed as reduction in cell viability incubated for 24 hrs by MTT assay. Type of data set: toxicity, cell-based, Felis catus. The settings on record: cat.
Data set [2] can be described thus: Cytotoxicity against FEA cells assessed as reduction in cell viability incubated for 24 hrs by MTT assay. Format: toxicity, cell-based, Felis catus. Conditions: cat. (In general: Tetrazolium dyes change colour on reduction, which living cells bring about.)
Data set [3] can be described thus: Cytotoxicity against IL2 independent FL-4 cells assessed as reduction in cell viability measured after 7 days by MTT assay. Type of data set: toxicity, cell-based, Felis catus. Conditions: cat, time 7 day.
Data set [4] relates to Feline immunodeficiency virus. Nature of the data set: Antiviral activity against Feline immunodeficiency virus infected in IL2 independent FL-4 cells assessed as reduction in viral replication treated for 7 days with daily replacement by qRT-PCR analysis. Conditions: FL-4, 168 h. Format: functional, organism-based.
The nature of data set [5]: Therapeutic index, ratio of CC50 for cytotoxicity against IL2 independent FL-4 cells to EC50 for antiviral activity against Feline immunodeficiency virus infected in IL2 independent FL-4 cells. Format: toxicity, cell-based. The settings on record: cat; read-out: Ratio CC50/EC50.

Usually CC50 stands for the concentration giving 50% cytotoxicity. A word on the EC50: it is the concentration needed to bring the measured effect to its halfway point. For `Clc1nss/c1=N\c1cc(-c2ccccc2)nn1Cc1ccccc1`, the values for the CC50 at 24 h in data set [1] and in data set [2] were 37 µM and 29 µM, respectively. The CC50 at 168 h in data set [3] is 53 µM. For the same molecule, the EC50 in data set [4] stood at 31 µM. In addition, the selectivity ratio in data set [5] was 1.7.

Take `Clc1nss/c1=N\c1cc(-c2ccccc2)n[nH]1`: the CC50 at 24 h was found to be 18 µM in data set [1] and 31 µM in data set [2]. Further, in data set [3], the CC50 at 168 h turned out to be 4.9 µM. Further, in data set [4], the EC50 came to 0.53 µM. The selectivity ratio in data set [5] turned out to be 9.2.

For `FC(F)(F)Oc1ccc(/N=c2\ssnc2Cl)cc1`, the CC50 at 24 h in data set [1] and in data set [2] was greater than 100 µM each time. Further, the cytotoxic concentration (CC50) at 168 h in data set [3] is greater than 100 µM. Also, the EC50 in data set [4] is greater than 100 µM.

With `Fc1ccc(/N=c2\ssnc2Cl)cc1`, the CC50 at 24 h in data set [1] and in data set [2] was greater than 100 µM each time. Moreover, in data set [3], the CC50 at 168 h is greater than 100 µM. Besides, the EC50 in data set [4] was 0.98 µM. Also, in data set [5], the selectivity ratio is greater than 100.

Regarding `O=[N+]([O-])c1cccnc1/N=c1\ssnc1Cl`, the CC50 at 24 h in data set [1] worked out at 21 µM; in data set [2], 6.1 µM. For the same molecule, in data set [3], the CC50 at 168 h amounted to 2.6 µM. The EC50 in data set [4] is 2 µM. In addition, in data set [5], the selectivity ratio amounted to 1.3.

Turning to `COc1cccnc1/N=c1\ssnc1Cl`, the CC50 at 24 h in data set [1] and in data set [2] was 37 µM each time. The CC50 at 168 h in data set [3] came to 61 µM. Besides, the EC50 in data set [4] is 2.9 µM. For the same molecule, the selectivity ratio in data set [5] was 21.

Regarding `Clc1nss/c1=N\c1ccc2c(c1)OCO2`, the figures for the CC50 at 24 h in data set [1] and in data set [2] were 44 µM and 53 µM, respectively. In data set [3], the CC50 at 168 h came to 49 µM. For the same molecule, in data set [4], the half-maximal effective concentration (EC50) was found to be 20 µM. For the same molecule, the selectivity ratio in data set [5] was 2.5.

As to `CCCCOc1ccc(/N=c2\ssnc2Cl)cc1`, the CC50 at 24 h in data set [1] and in data set [2] was greater than 100 µM each time. For the same molecule, the cytotoxic concentration (CC50) at 168 h in data set [3] was greater than 100 µM. In data set [4], the EC50 came out at 26 µM. For the same molecule, in data set [5], the selectivity ratio was greater than 3.8.

Consider `FC(F)(F)c1ccc(/N=c2\ssnc2Cl)cc1`, for which the CC50 at 24 h in data set [1] and in data set [2] was greater than 100 µM each time. Further, in data set [3], the CC50 at 168 h is greater than 100 µM. Besides, the EC50 in data set [4] worked out at 15 µM. In addition, the selectivity ratio in data set [5] is greater than 6.7.

With `CCOc1cccnc1/N=c1\ssnc1Cl`, the CC50 at 24 h in data set [1] was 42 µM; in data set [2], 45 µM. Moreover, the CC50 at 168 h in data set [3] came to 49 µM. Further, the EC50 in data set [4] is 0.55 µM. Moreover, the selectivity ratio in data set [5] turned out to be 90.

For `Clc1nss/c1=N\c1ccc(Br)cc1`, the CC50 at 24 h was greater than 100 µM in data set [1] and 40 µM in data set [2]. The CC50 at 168 h in data set [3] was greater than 100 µM. In addition, the EC50 in data set [4] turned out to be 0.64 µM. The selectivity ratio in data set [5] is greater than 160.

On to `Clc1nss/c1=N\c1ccc(Oc2ccccc2)cc1`, for which the CC50 at 24 h in data set [1] and in data set [2] was greater than 100 µM in each case. The CC50 at 168 h in data set [3] was greater than 100 µM. Also, the EC50 in data set [4] was 35 µM. Besides, the selectivity ratio in data set [5] was greater than 2.9.

Take `N#Cc1ccc(/N=c2\ssnc2Cl)cc1`: the CC50 at 24 h in data set [1] was determined as 31 µM; in data set [2] it was 50 µM. In data set [3], the CC50 at 168 h was greater than 100 µM. The EC50 in data set [4] stood at 0.62 µM. In data set [5], the selectivity ratio is greater than 160.

As for `N#Cc1cccnc1/N=c1\ssnc1Cl`, the CC50 at 24 h in data set [1] is 3.1 µM; in data set [2] it was 36 µM. In addition, the CC50 at 168 h in data set [3] is 51 µM. For the same molecule, the EC50 in data set [4] turned out to be 0.42 µM. For the same molecule, the selectivity ratio in data set [5] came to 122.

Turning to `Cc1cc(/N=c2\ssnc2Cl)n(Cc2ccccc2)n1`, the CC50 at 24 h in data set [1] is 33 µM; in data set [2], 30 µM. Further, the CC50 at 168 h in data set [3] is 52 µM. Moreover, the EC50 in data set [4] worked out at 22 µM. Also, in data set [5], the selectivity ratio is 2.4.

Consider `Clc1nss/c1=N\c1ccc(OCc2ccccc2)cc1`, for which the CC50 at 24 h in data set [1] is greater than 100 µM; in data set [2], 74 µM. For the same molecule, in data set [3], the CC50 at 168 h is 44 µM. Also, in data set [4], the EC50 came out at 23 µM. Also, the selectivity ratio in data set [5] worked out at 1.9.

As for `Fc1ccc(F)c(/N=c2\ssnc2Cl)c1`, the CC50 at 24 h in data set [1] and in data set [2] was greater than 100 µM throughout. In addition, the CC50 at 168 h in data set [3] stood at 89 µM. Besides, the EC50 in data set [4] is 0.68 µM. Moreover, the selectivity ratio in data set [5] worked out at 131.

As to `Cc1cc(/N=c2\ssnc2Cl)n[nH]1`, the CC50 at 24 h in data set [1] is greater than 100 µM; in data set [2], 55 µM. Also, the half-maximal cytotoxic concentration (CC50) at 168 h in data set [3] was 50 µM. In data set [4], the EC50 came out at 0.083 µM. For the same molecule, the selectivity ratio in data set [5] came out at 600.

Take `Clc1nss/c1=N\c1cccc(Br)c1`: the CC50 at 24 h in data set [1] and in data set [2] was greater than 100 µM in each case. Further, the CC50 at 168 h in data set [3] was greater than 100 µM. The EC50 in data set [4] is greater than 100 µM.

Take `CSc1ccc(/N=c2\ssnc2Cl)cc1`: the CC50 at 24 h amounted to 43 µM in data set [1] and 53 µM in data set [2]. For the same molecule, in data set [3], the CC50 at 168 h turned out to be 51 µM. In addition, in data set [4], the EC50 was 21 µM. In addition, in data set [5], the selectivity ratio worked out at 2.4.

For the molecule `N#Cc1c(Br)cccc1/N=c1\ssnc1Cl`, the CC50 at 24 h in data set [1] was determined as 38 µM; in data set [2], 41 µM. Further, the CC50 at 168 h in data set [3] was 53 µM. Also, the EC50 in data set [4] was determined as 15 µM. Moreover, the selectivity ratio in data set [5] stood at 3.5.

Take `Clc1nss/c1=N\c1ccccc1Br`: the CC50 at 24 h in data set [1] and in data set [2] was greater than 100 µM in each case. The CC50 at 168 h in data set [3] amounted to 39 µM. The concentration giving a half-maximal response (EC50) in data set [4] came out at 12 µM. Also, the selectivity ratio in data set [5] stood at 3.3.

As to `Cc1cc(OC(F)(F)F)ccc1/N=c1\ssnc1Cl`, the CC50 at 24 h in data set [1] and in data set [2] was greater than 100 µM throughout. Further, the CC50 at 168 h in data set [3] is greater than 100 µM. The EC50 in data set [4] was greater than 100 µM.

For the molecule `FC(F)(F)Oc1ccc(/N=c2\ssnc2Cl)cc1Cl`, the CC50 at 24 h in data set [1] was 85 µM; in data set [2], greater than 100 µM. The CC50 at 168 h in data set [3] worked out at 23 µM. In data set [4], the EC50 is 23 µM. The selectivity ratio in data set [5] is 1.

On to `O=[N+]([O-])c1ccc(/N=c2\ssnc2Cl)cc1`, for which the CC50 at 24 h in data set [1] was 31 µM; in data set [2], 50 µM. Further, the CC50 at 168 h in data set [3] stood at 49 µM. In data set [4], the EC50 was determined as 0.29 µM. For the same molecule, the selectivity ratio in data set [5] was found to be 170.

`Clc1ccccc1/N=c1\ssnc1Cl`: the CC50 at 24 h in data set [1] is greater than 100 µM; in data set [2], 25 µM. The CC50 at 168 h in data set [3] came out at 51 µM. The EC50 in data set [4] turned out to be 20 µM. In data set [5], the selectivity ratio was 2.6.

As for `COc1cccc(/N=c2\ssnc2Cl)n1`, the CC50 at 24 h worked out at 34 µM in data set [1] and 4.3 µM in data set [2]. Further, the CC50 at 168 h in data set [3] was 47 µM. Further, in data set [4], the EC50 was 0.26 µM. In addition, the selectivity ratio in data set [5] was 178.

In the case of `Clc1nss/c1=N\c1ccccn1`, the CC50 at 24 h is 29 µM in data set [1] and 4.6 µM in data set [2]. In addition, the CC50 at 168 h in data set [3] stood at 40 µM. In data set [4], the EC50 was 0.38 µM. For the same molecule, in data set [5], the selectivity ratio turned out to be 105.

`Clc1nss/c1=N\c1cccc(Br)n1`: the half-maximal cytotoxic concentration (CC50) at 24 h came to 38 µM in data set [1] and 52 µM in data set [2]. In addition, the CC50 at 168 h in data set [3] was found to be 44 µM. In data set [4], the EC50 came out at 0.48 µM. Further, the selectivity ratio in data set [5] was 92.

Turning to `Clc1nss/c1=N\c1nccs1`, the results for the CC50 at 24 h in data set [1] and in data set [2] were 7.6 µM and 8.4 µM, respectively. Besides, the CC50 at 168 h in data set [3] worked out at 4.7 µM. Besides, in data set [4], the EC50 is 3 µM. In data set [5], the selectivity ratio stood at 1.6.

`FC(F)(F)Oc1ccc(/N=c2\ssnc2Cl)cc1Br`: the CC50 at 24 h in data set [1] and in data set [2] was greater than 100 µM in each case. Further, the CC50 at 168 h in data set [3] was greater than 100 µM. In addition, in data set [4], the half-maximal effective concentration (EC50) was greater than 100 µM.

For `Clc1ccc(/N=c2\ssnc2Cl)cc1`, the results for the CC50 at 24 h in data set [1] and in data set [2] were greater than 100 µM and 51 µM, respectively. For the same molecule, the CC50 at 168 h in data set [3] is 45 µM. For the same molecule, the EC50 in data set [4] worked out at 0.57 µM. For the same molecule, in data set [5], the selectivity ratio is 79.

Consider `Clc1nss/c1=N\c1ccc(I)cc1`, for which the CC50 at 24 h in data set [1] stood at 73 µM; in data set [2], 44 µM. In addition, the CC50 at 168 h in data set [3] is 49 µM. Moreover, the concentration giving a half-maximal response (EC50) in data set [4] came to 0.38 µM. In addition, the selectivity ratio in data set [5] stood at 129.
